Measured values from article PMC7647782, “Cytotoxic, Antioxidant, and Metabolic Enzyme Inhibitory Activities of Euphorbia cyparissias Extracts” (Oxidative Medicine and Cellular Longevity, 2020).
In brackets after ≈: the same amount, converted by molar mass.

Assays:
dromedary lipase (DrPL) = experiment: Lipase activity inhibition, dromedary lipase; type: biochemical; settings: mean ± SD of triplicate
Description: Dromedary (DrPlA2-IB), porcine (PPPlA2-IB), and stingray group IB phospholipases (SPLA2-IB) were purified and prepared as described in our previous works and De Haas et al., respectively. Dromedary (DrPL), stingray (SPL), and porcine (PPL) lipases were also purified according to protocols optimized in previous works. The enzymes β-glucosidase, α-amylase, and XO were purchased from Sigma-Aldrich (St. Louis, MO, USA).
The inhibitory effect of ethanolic and aqueous extracts of E. cyparissias on dromedary, stingray, and porcine lipase activities were investigated at different concentrations ranging from 0 to 100 μg/mL. The assay was carried out by incubating 12 IU of enzymes (50 μL) with 10 μL of extract. A positive control using commercial orlistat (Xenical, Hoffmann-La Roche) was run in parallel in the same conditions. Inhibition of lipase activities was expressed as the percentage of residual activity after incubation with Euphorbia extracts compared to the negative control ([…]). Lipase activities were measured using tributyrin as a substrate under the optimal conditions for each enzyme, as previously described. The IC50 values correspond to the half maximal inhibitory concentration.
The activities of these lipases were measured using the pH-stat technique on olive oil emulsion at optimal conditions for enzyme activity. […]

β-glucosidase = experiment: β-Glucosidase activity inhibition; type: biochemical
Experimental: [20], respectively. […] The enzymes β-glucosidase, α-amylase, and XO were purchased from Sigma-Aldrich (St. Louis, MO, USA). The β-glucosidase activity was determined by measuring the 4-nitrophenol […] (4-NPGP) product. […] Then, the mixture was incubated with color reagent NPGP (180 μL) for more 15 min at 37°C. […] The activity was evaluated by measuring absorbance at 405 nm with a microplate reader. The same equation used to measure α-amylase activity was used to measure that of β-glucosidase.

[1] = DPPH radical scavenging assay
Experimental: In every sample of E. cyparissias extract, the antioxidant activity was evaluated by using the DPPH radical scavenging and reducing power assays as previously described in the literature. To measure DPPH activity, a sample of 0.5 mL for each concentration was mixed with an equal volume of DPPH ethanolic solution and incubated in darkness for 1 h at ambient temperature. The activity was determined by comparing the absorbance at 519 nm of DPPH radicals to that of the control (containing all reagents except the extract).

chymotrypsin = chymotrypsin (Bos taurus, UniProt P00766); experiment: Protease activity inhibition, chymotrypsin; type: biochemical; settings: unit as in head of Table 4
Experimental: (§1) The trypsin and chymotrypsin activity inhibition was performed as described by Kunitz. An aliquot of 1 mL of ethanolic or water extract was incubated for 15 min at 37°C with an equal volume of the enzyme. The mixture was then incubated for 30 min at 37°C with 2 mL of 2% casein as the substrate. The reaction was stopped by adding 2.5 mL of 5% trichloroacetic acid (TCA). The activity was determined by measuring the absorbance of the mixture at 280 nm, after 15 min of centrifugation at 15 000 rpm. Ethanol was used as a negative control and Bowman-Birk Inhibitor (BBI) as a positive control. The protease activity inhibition was also expressed as inhibition percentage, which was determined by comparing the results with those of a control experiment.

SPLA2-IB = experiment: Phospholipase activity inhibition, stingray PLA2-IB; type: biochemical; settings: stingray group IB phospholipase
Experimental: The phospholipase activities were measured based on the De Araújo and Radvanyi method [24]. The inhibitory effect of various extracts was determined using samples of dromedary, stingray, and porcine digestive group IB phospholipases (PLA2-IB). A 10 μL sample of ethanolic or aqueous extract was mixed with 10 μL of PLA2-GIB and preincubated for 20 min at room temperature. The mixture was added to 1 mL of the substrate, which was composed of lecithin (3.5 mM) solubilized in 100 mM NaCl, 3 mM sodium taurodeoxycholate, 10 mM CaCl2, and 0.055 mM red phenol at a pH of 7.6. […] The inhibition percentage was calculated by measuring residual activity compared to negative control assay (absence of extract). The IC50 values were determined from the curve.
Values represent the mean ± SD of triplicate measurements.

trypsin = biological target: T1, trypsin (Bos taurus, UniProt P00760); experiment: Protease activity inhibition, trypsin; type: biochemical; settings: unit as in head of Table 4
T1 construct: gene PRSS1
T1 sequence (P00760 24-246): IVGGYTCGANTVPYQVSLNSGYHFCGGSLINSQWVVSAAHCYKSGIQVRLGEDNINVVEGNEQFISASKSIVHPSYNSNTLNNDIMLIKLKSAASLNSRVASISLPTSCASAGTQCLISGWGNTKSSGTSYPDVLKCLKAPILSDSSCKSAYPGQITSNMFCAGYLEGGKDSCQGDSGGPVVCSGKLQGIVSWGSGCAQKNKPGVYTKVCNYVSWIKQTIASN
Experimental: as §1

Molecule: CCCCCCCCCCC[C@@H](C[C@@H]1OC(=O)[C@H]1CCCCCC)OC(=O)[C@H](CC(C)C)NC=O [Orlistat, orlistat]
- IC50 DrPL (dromedary lipase (DrPL)): 97.2 ± 2.5 µg/mL (≈ 196 µM)

Molecule: C[C@H]1O[C@H](O[C@H]2[C@H](O)[C@@H](O)[C@@H](O[C@H]3[C@H](O)[C@@H](O)C(O)O[C@@H]3CO)O[C@@H]2CO)[C@H](O)[C@@H](O)[C@@H]1N[C@H]1C=C(CO)[C@@H](O)[C@H](O)[C@H]1O (stereo partly shown) [Acarbose]
- IC50 β-Glucosidase (β-glucosidase): 26.2 ± 2.5 µg/mL (≈ 40.6 µM)

Molecule: Cc1cc(C(C)(C)C)c(O)c(C(C)(C)C)c1 [BHT, butylated hydroxytoluene]
- DPPH scavenging activity ([1]; at a concentration of 1 mg/mL): 95.3 ± 0.4%
- DPPH IC50 ([1]; from Figure 5(b), unit as printed for BHT): ~54 µg/mL

Molecule: BBI: Bowman-Birk Inhibitor, positive control for trypsin and chymotrypsin inhibition
- IC50 Chymotrypsin (chymotrypsin): 0.0108 ± 0.0004 µg/mL

Molecule: CC1(C)CC[C@]2(C(=O)O)CC[C@]3(C)C(=CC[C@@H]4[C@@]5(C)CC[C@H](O)C(C)(C)[C@@H]5CC[C@]43C)[C@@H]2C1 [Oleanolic acid, oleanolic acid]
- IC50 SPLA2-IB (SPLA2-IB): 82.8 ± 5.7 µg/mL (≈ 181 µM)

B1: BBI: Bowman-Birk Inhibitor, positive control for trypsin and chymotrypsin inhibition (protein)
chain: DDESSKPCCDQCACTKSNPPQCRCSDMRLNSCHSACKSCICALSYPAQCFCVDITDFCYEPCKPSEDDKEN
modifications: seven intrachain disulfides; Check residues are the known reactive sites Lys16 and Leu43 in mat
- IC50 Trypsin (trypsin): 0.0115 ± 0.0004 µg/mL
